Measurements from patent US5135849A, “In-vitro methods for identifying compositions which are agonists and antagonists of androgens” (priority 1989, dated 1992).

Legend:
androgen receptor = molecular target: T1, androgen receptor (Homo sapiens, UniProt P10275, T878A); assay: Competition for androgen receptors with 3H-testosterone in LNCaP cytosol-nuclear extracts (RBA); assay type: binding; settings: Table II, 5α-DHT = 100; 6×10^-9 M 3H-testosterone
T1 construct: the presence of specific androgen receptors in LNCaP cells; endogenous in cells; extract or intact cells for the saturation analysis
T1 sequence (P10275 whole entry T878A): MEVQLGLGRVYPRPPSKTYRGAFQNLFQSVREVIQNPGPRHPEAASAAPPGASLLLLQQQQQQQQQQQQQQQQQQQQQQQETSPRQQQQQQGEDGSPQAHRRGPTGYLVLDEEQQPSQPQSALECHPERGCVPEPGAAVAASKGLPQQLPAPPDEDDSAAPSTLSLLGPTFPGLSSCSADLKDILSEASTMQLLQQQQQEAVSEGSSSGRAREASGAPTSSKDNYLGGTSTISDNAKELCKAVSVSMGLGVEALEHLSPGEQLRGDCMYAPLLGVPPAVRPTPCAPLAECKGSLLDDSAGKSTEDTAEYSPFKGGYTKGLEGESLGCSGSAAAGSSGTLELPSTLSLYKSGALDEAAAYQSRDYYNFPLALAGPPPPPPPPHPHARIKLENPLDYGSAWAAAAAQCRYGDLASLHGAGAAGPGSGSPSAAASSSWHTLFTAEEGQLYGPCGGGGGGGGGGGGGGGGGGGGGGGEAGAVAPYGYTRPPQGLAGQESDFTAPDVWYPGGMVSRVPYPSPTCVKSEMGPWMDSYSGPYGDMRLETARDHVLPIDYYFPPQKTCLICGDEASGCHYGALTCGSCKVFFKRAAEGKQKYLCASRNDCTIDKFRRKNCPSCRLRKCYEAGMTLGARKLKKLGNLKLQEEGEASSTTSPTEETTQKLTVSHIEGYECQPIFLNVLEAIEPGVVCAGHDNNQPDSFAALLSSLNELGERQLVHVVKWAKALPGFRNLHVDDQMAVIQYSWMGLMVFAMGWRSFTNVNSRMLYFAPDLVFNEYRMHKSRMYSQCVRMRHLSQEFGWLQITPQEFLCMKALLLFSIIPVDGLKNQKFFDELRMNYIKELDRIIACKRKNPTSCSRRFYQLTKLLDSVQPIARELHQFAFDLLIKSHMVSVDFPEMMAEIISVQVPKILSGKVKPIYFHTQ
Procedure: (§1) Steroid receptors measurement: The presence of intracellular sex steroid binding proteins was investigated in whole cell extracts as well as in intact cells. Cytosolic and nuclear extracts were obtained after centrifugation (105,000 g, 45 min.) of a sonicated cellular suspension in TKE buffer (10 mM Tris, 500 mM KCl, 0.5 mM EDTA, pH 7.4). Aliquots of this extract were incubated for 18 hours at 4° C. with increasing concentrations (2×10^- M to 2×10^-8 M) of labelled steroids, with and without a 200-fold excess of the corresponding unlabelled steroid. Bound and free fractions were separated by dextran-coated charcoal adsorption. Intact cells grown in monolayer culture were assayed for specific steroid binding [Olea-Serrano et al., Eur. J. Cancer Clin. Oncol. 21:965-973 (1983)]. Briefly, the cells were incubated in 12-well plates during 50 minutes at 37° C. in DME containing the labelled steroid with and without excess of cold competitor. The range of concentrations used was the same as that in the cytosolic-nuclear extract assay. […] The intracellular radioactivity was extracted with ethanol after ice-cold PBS washing. In both types of experiments, Scatchard analysis of the saturation data was used to quantify the maximal binding capacity (Bmax) and the affinity parameters (dissociation constant, Kd) using the SCAFIT program [Munson et al., Anal. Biochem. 107:220-239 (1980)].
Cytosol-nuclear extracts were used to study competition for androgen receptors. […] The relative binding affinity (RBA) was calculated from the equation: […]

LNCaP cells [1] = assay: Phase 1 protocol to identify androgen agonist properties (LNCaP cell proliferation in CDHS medium); assay type: cell-based, human; settings: for PHASE 1 CELL COUNT: final cell number per well at the optimal test conc., 10% CDHS; for CHARACTERISTICS: classification from Phase 1 and Phase 2 protocols
Description: This protocol measures the potential agonistic properties of the substance under test. All manipulations are to be carried out under sterile conditions using disposable plastic tissue culture multiwell plates with all manipulations preferrably being performed in a tissue culture hood.
1. The cell line of choice is the LNCaP-FGC cell culture, an androgen-sensitive prostate tumor cell line. The LNaP cell line is routinely grown in 5% fetal bovine serum--supplemented Dulbecco's modified Eagle minimal essential medium (hereinafter "5% FBS/DME"), at 37° C. in a 95% air--5% CO2 atmosphere.
2. The cultured cells growing in 5% FBS/DME are harvested by treatment with trypsin (1:250)--EDTA (0.2%). The cells are detached by brief exposure to trypsin for about two minutes. To avoid excessive proteolysis, the reaction is quenched by addition of equal volumes of 5% FBS/DME. The resulting cell suspension is collected into a sterile centrifuge tube and resuspended by pipetting gently. The aliquots of this cell suspension thus obtained are dispersed by means of a Skatron dispenser into individual wells containing the seedling medium (1 ml of 5% FBS/DME per well) of a multiwell plate. Each final prepared suspension preferably contains 50,000 cells in a volume of 1.0 ml. It is desirable that the number of cells be counted and verified by means of a Coulter Counter (Coulter Electronics, Hialeah, FL).
The number of wells in each plate will correspond to the number of concentrations per test substances to be evaluated and thus is merely a question of choice or convenience to the user. Into each well, 25 microliter (hereinafter "ul") aliquots of the prepared cell suspension are added using a 1.0 ml syringe fitted with a 19 gauge needle attached to a repetitive Dunn pipetter (Skatron Dispenser). The microtiter plate is then gently shaken to avoid unequal cell distribution within each individual well. The seeded cells are then allowed to attach to the plastic surface of the well proper over a period of 24-72 hours' duration after which the fluid is changed to the experimental maintaining medium.
3 At the time of test, all the seeded cells in each well of the multiwell plate receive 10% heat inactivated--charcoal-dextran human stripped serum (CDHS) in DME at a volume of 0.9 ml per well. Although higher concentrations of CDHS may be utilized up to and including 40% concentrations, the 10% concentration is most preferred.
5. To the other prepared (seeded) wells, 100 ul of the test substance to be evaluated is added as a 10X stock solution to achieve final concentrations ranging from 10^-5 M to at least 10^-12 M. The substance under test is preferably prepared as a stock solution in ethanol, most preferrably as a 10^-3 M solution. All dilutions from the stock preparation are made using DME. The ethanol concentration in the culture medium should be kept below […] by volume. This preparative technique and precaution avoids the need to filter the various volumes of test substance to achieve sterility. This is particularly valuable because steroidal compositions are known to become adsorbed to the commercially obtained filter membranes used for sterilization. The addition of the test substance in appropriate concentrations to the cultured cells and the maintaining medium forms a series of individual reaction mixtures, each of which is varied only by the concentration of the test substance present in the well.
6. After the series of individual reaction mixtures are formed, all of the cultured cells under test in each well of the microtiter plate are incubated at 37° C. preferably in an atmosphere of 5% CO2 /95% air under saturating humidity. During this incubation time, it is desired and preferred that the cultured cells employed in the test be maintained in an atmosphere most advantageous for survival and growth of that cell line. The incubation period preferably is in the range of from 5 to 7 days' duration.

[2] = tested on: 3H-E2 binding in LNCaP cells; assay: Competition with 3H-E2 binding in LNCaP cells; set-up: species or system human
Procedure: as §1

LNCaP cells [3] = assay: Phase 2 protocol for androgen antagonistic properties (LNCaP proliferation with 3×10^-10 M 5α-DHT plus test substance); settings: Phase 2 protocol
LNCaP cells [4] = assay: Proliferation rate (doubling time) of LNCaP cells in 10% CDHS; assay type: cell-based, human; settings: compared with 5α-DHT
Procedure: 8. To obtain reproducible, accurate, and reliable data consistently using this protocol, a series of quality assurance measures should be employed. […] These goals are achieved using the optimal 5-7 day incubation period. […] For this innoculum, cells are harvested every 24-48 hours (preferably as triplicate samples) until the entire 5-7 day incubation period expires. A good estimate of the proliferation rate is the mean generation time, "tD ". tD is calculated from the equation α=1/txln Ct /Co , where Co is the initial cell number, Ct is the cell number at time-t, and α is the instantaneous cell proliferation constant (tD is the value ln Ct /Co x would have when Ct =2Co) "tD " is expressed in time units, i.e., hr. The slopes of the different growth curves are calculated by fitting the experimental data to a straight line by regression analysis of the pairs ln cell numbers/time. to is defined as the moment at which the seeding medium is replaced by the maintaining medium.
The inhibitory effect of CD human sera was not instantaneous; at the end of 3 to 4 days the population increase was halted and remained stable for up to 30 days without media changes.

## C#C[C@]1(O)CC[C@H]2[C@@H]3CCc4cc(O)ccc4[C@H]3[C@@H](OC)C[C@@]21C [R2858, 11β-methoxy-19-nor-17a-1,3,5(10)-trien-20-yne-3,17-diol]
Androgen receptor
  RBA (relative binding affinity to the androgen receptor): < 0.01
LNCaP cells [1]
  PHASE 1 CELL COUNT: 5 × 10^4
[2]
  competition with 3H-E2 binding, in words: did not compete

## C[C@]12CC[C@@H]3c4ccc(O)cc4CC[C@H]3[C@@H]1CC[C@@H]2O [estradiol 17β, estra-1,3,5(10)-triene-3,17-diol]
LNCaP cells [1]
  CHARACTERISTICS: full agonist
  PHASE 1 CELL COUNT: 4.0 × 10^5
LNCaP cells [1]; listed as estradiol-17β
  CHARACTERISTICS: full agonists
LNCaP cells [3]
  antagonistic activity, in words: no antagonistic activity
LNCaP cells [4]
  population doubling time, in words: slightly shorter population doubling time
